Several values for one entry are separate records, joined by “and”; a condition that tells them apart may be missing. Equal entries are not always repeated.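 Each compound was tested at five concentrations against cells in 96-well plates for 48 hours. Abbreviation: GI50, concentration required for 50% inhibition of growth. TGI: concentration producing complete growth inhibition.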
What was measured:
Experiment in all cases: NCI anticancer screen, dose series, 48 h
[1] = system: MDA-N
[2] = system: DU-145 prostate
[3] = system: SN12C renal
[4] = system: OVCAR-3 ovarian
[5] = system: SNB-75 CNS
[6] = system: SW-620 colon
[7] = system: OVCAR-8 ovarian
[8] = system: HCC-2998 colon
[9] = system: SR leukemia
[10] = system: BT-549 breast

SMILES	TGI [1] [µM]	TGI [2] [µM]	TGI [3]	TGI [4] [µM]	TGI [5] [µM]	TGI [6]	TGI [7] [µM]	TGI [8] [µM]	TGI [9]	TGI [10] [µM]	GI50 [2] [µM]	GI50 [3] [µM]	GI50 [4] [µM]	GI50 [6] [µM]	GI50 [7] [µM]	GI50 [8] [µM]	GI50 [10] [µM]	GI50 [5] [µM]	GI50 [9] [µM]
C1CCCCC2(CCCCCCCCC3(CCC1)SCCS3)SCCS2	> 100	> 100	> 100 µM	> 100	> 100	> 100 µM	> 100	> 100	> 100 µM	–	–	–	–	–	–	–	–	–	–
CCOC(=O)c1cn2c(n1)sc1cc(OC)ccc12	> 22.6	24.6	> 100 µM	> 44.8	> 100	> 100 µM	> 100	> 100	–	> 100	–	–	–	–	–	–	–	–	–
CN=C(Nc1ccc(OC)c2ccccc12)SC	> 10	> 10	> 10 µM	> 10	> 10	> 10 µM	> 10	> 10	> 10 µM	> 10	–	–	–	–	–	–	–	–	–
N#CCCN(CCC#N)c1ccc(/C=C2\N=C(c3ccccc3)N(c3ccc(C(=O)O)cc3)C2=O)cc1	> 100	> 100	> 100 µM	> 100	–	48.3 µM	73.1	–	–	71.2	–	–	–	–	–	–	–	–	–
COC(=O)CCC1(CCC(=O)OC)CCCCCCC(CCC(=O)OC)(CCC(=O)OC)C(=O)C1=O	> 100	> 100	> 100 µM	> 100	> 100	–	> 100	> 100	–	–	–	–	–	–	–	–	–	–	–
Oc1ccc(/C=C/c2cccc(/C=C/c3ccc(O)c(O)c3)n2)cc1O	20.5	20.6	27.5 µM	> 100	16.5	> 100 µM	20.8	33.1	14.5 µM	> 100	–	–	–	–	–	–	–	–	–
CCc1ccc2[nH]c(O)c(C3=Nc4ccccc4C3=O)c2c1	> 100	> 100	> 100 µM	51.8	91.4	> 100 µM	57	53.2	37.8 µM	72.8	–	–	–	–	–	–	–	–	–
CC1(C)OCC(C2OC3OC(C)(C)OC3C2c2ccccc2)O1 (stereo not given)	> 100	> 100	> 100 µM	91.7	> 100	> 100 µM	> 100	> 100	> 100 µM	–	–	–	–	–	–	–	–	–	–
Cc1ccc(S(=O)(=O)CNC(=O)C(O)(O)C(F)(F)F)cc1	> 100	> 100	> 100 µM	> 100	–	> 100 µM	> 100	> 100	> 100 µM	> 100	–	–	–	–	–	–	–	–	–
COC1(C2c3ccccc3CCN2C(=O)OC(C)(C)C)C(=O)C(c2ccccc2)=C1N(C)C (stereo not given)	64	> 100	39.9 µM	70.6	> 100	> 100 µM	> 100	–	> 100 µM	75	–	–	–	–	–	–	–	–	–
COc1ccc(C2=[S+]C(c3ccccc3)(c3ccccc3)c3ccccc32)cc1	54.5	65.7	37.1 µM	43.6	91.1	> 100 µM	> 100	> 100	–	53.9	–	–	–	–	–	–	–	–	–
CCOP(=O)(OCC)/C(C#N)=C/c1ccccn1	> 100	> 100	> 100 µM	> 100	> 100	> 100 µM	> 100	> 100	> 100 µM	–	–	–	–	–	–	–	–	–	–
CC[C@@H](CCCCC1CC[C@H]2CC(=O)C[C@@H]12)OC (stereo not given in full)	> 100	> 100	> 100 µM	> 100	> 100	> 100 µM	> 100	> 100	> 100 µM	–	–	–	–	–	–	–	–	–	–
COc1cc(/C=N/N=C(\N)NO)cc(OC)c1OC	–	> 100	> 100 µM	> 100	–	> 100 µM	37.9	> 100	71.2 µM	–	–	–	–	–	–	–	–	–	–
CC(C)(C)C(=O)Oc1ccc(/C=C/C(=O)c2ccc(OC(=O)C(C)(C)C)cc2)cc1	> 100	> 100	> 100 µM	72	> 100	> 100 µM	> 100	> 100	76.4 µM	–	–	–	–	–	–	–	–	–	–
O=c1oc(-c2ccc(O)cc2)cc2cc(O)ccc12	–	> 100	65.1 µM	> 100	> 100	87.8 µM	> 100	65.9	–	62.1	–	–	–	–	–	–	–	–	–
CCOC(=O)C(=CNc1ccc(N(C2=NCC(C)S2)c2ccc(F)c(Cl)c2)cc1)C(=O)OCC (stereo not given)	43.1	43.9	36.2 µM	51.8	43.7	57.1 µM	37.3	32	43.1 µM	–	–	–	–	–	–	–	–	–	–
O=C(O)c1nc2ccc(C(F)(F)F)cc2nc1Nc1ccc(Cl)c(Cl)c1	25.3	–	22.1 µM	23.9	29	24.1 µM	17.6	17.6	14 µM	14.7	–	–	–	–	–	–	–	–	–
O=c1[nH]nc(-c2ccccc2)n1/N=C/c1cccc([N+](=O)[O-])c1	–	> 100	> 100 µM	> 100	> 100	> 100 µM	> 100	> 100	> 100 µM	> 100	–	–	–	–	–	–	–	–	–
Nc1nc2ccc(Sc3ccc4nc(N)[nH]c(=O)c4c3)cc2c(=O)[nH]1	–	> 100	> 100 µM	> 100	> 100	> 100 µM	> 100	> 100	> 100 µM	> 100	–	–	–	–	–	–	–	–	–
COC(=O)C1Cc2c(OC)ccc(OC)c2C(O)C1C(=O)OC (stereo not given)	> 100	> 100	> 100 µM	> 100	> 100	> 100 µM	> 100	–	> 100 µM	–	–	–	–	–	–	–	–	–	–
Cc1cccc2[nH]c3c(c(O)cc4[nH]c5cccc(C)c5c(=O)c43)c(=O)c12	> 10	> 10	> 10 µM	> 10	> 10	> 10 µM	> 10	> 10	–	> 10	–	–	–	–	–	–	–	–	–
O=C1C[C@@]23CCC4(CC2CCC[C@H]3O1)OCCO4 (stereo not given in full)	> 100	> 100	> 100 µM	> 100	–	> 100 µM	> 100	> 100	> 100 µM	–	–	–	–	–	–	–	–	–	–

SMILES	TGI [1] [µM]	TGI [2] [µM]	TGI [3]	TGI [4] [µM]	TGI [5] [µM]	TGI [6]	TGI [7] [µM]	TGI [8] [µM]	TGI [9]	TGI [10] [µM]	GI50 [2] [µM]	GI50 [3] [µM]	GI50 [4] [µM]	GI50 [6] [µM]	GI50 [7] [µM]	GI50 [8] [µM]	GI50 [10] [µM]	GI50 [5] [µM]	GI50 [9] [µM]
O=c1cc(-c2ccccc2)[nH]c2cc(F)cc(F)c12	–	–	> 100 µM	–	46.9	> 100 µM	> 100	–	> 100 µM	–	–	–	–	–	–	–	–	–	–
Cc1cc(N/N=C/c2nc(-c3ccc(Cl)cc3)oc2C)c2cc(Br)ccc2n1	–	7.67	4.38 µM	3.89	–	4.23 µM	5.97	12.5	–	19.9	2.66	2.05	1.96	1.87	2.41	3.58	6.91	–	–
CCOC(=O)c1sc2c(c1OC(=O)c1cc(OC)c(OC)c(OC)c1)c(=O)n(-c1ccccc1)c(=S)n2-c1ccccc1	> 100	> 100	> 100 µM	> 100	> 100	> 100 µM	> 100	> 100	–	–	–	–	–	–	–	–	–	–	–
COc1cc(C(=O)N[C@H]2CCc3cc(OC)c(OC)c(OC)c3-c3ccc(SC)c(=O)cc32)cc(OC)c1OC	–	–	25 µM and 41.2 µM	–	48.6	25 µM and > 100 µM	0.0478	0.159	25 µM and > 100 µM	–	–	0.0145	–	–	–	–	–	–	–
COc1cc(C2c3cc4c(cc3OC(NNS(=O)(=O)c3ccc(C)cc3)C2C)OCO4)cc(OC)c1OC (stereo not given)	2.01	> 100	> 71.4 µM	7.78	17.1	> 100 µM	46.8	> 23.4	–	45.6	–	–	–	–	–	–	–	–	–
O=c1[nH]nc(-c2ccccc2)n1/N=C/c1ccccc1O	> 100	> 100	> 100 µM	> 100	–	> 100 µM	> 100	> 100	> 100 µM	> 100	–	–	–	–	–	–	–	–	–
CC(=O)C(C)C(=O)N1C(=O)N(C)C2(C)N(C)C(=O)NC12C (stereo not given)	> 100	> 100	> 100 µM	> 100	> 100	–	–	> 100	> 100 µM	> 100	–	–	–	–	–	–	–	–	–
O=Cc1ccc(OC[C@H]2COC(=O)N2)cc1	–	> 100	> 100 µM	> 100	> 100	> 100 µM	> 100	> 100	> 100 µM	> 100	–	–	–	–	–	–	–	–	–
Cc1cn(-c2cccc(NC(=O)c3ccc(C)c(Nc4nccc(-c5cccnc5)n4)c3)c2)cn1	–	17.9	4.7 µM	3.84	2.97	4.76 µM	2.5	8.02	5.02 µM	3.11	3.73	2.1	1.95	2.25	1.1	3.05	1.49	1.59	2.08
CCC(C)C(N)C(=O)N/N=C\c1c2c(nc3ccccc13)-c1cc3c(c(=O)n1C2)COC(=O)[C@]3(O)CC (stereo not given in full)	> 100	2.04	> 32.5 µM	8.95	13.3	> 43.7 µM	> 20	15.2	–	> 30.2	–	–	–	–	–	–	–	–	–
Cn1c(=Nc2ccc(Cl)cc2)sc2ccccc21	–	> 100	> 100 µM	–	> 100	> 100 µM	> 100	68.3	> 100 µM	–	–	–	–	–	–	–	–	–	–
c1ccc2cc3c(NC4=NCCO4)cccc3cc2c1	3.57	> 100	> 100 µM	> 100	> 100	> 100 µM	> 100	–	> 100 µM	–	–	–	–	–	–	–	–	–	–
Cc1cccc2oc3c(c(=O)c12)CC(O)C(C)(C)O3 (stereo not given)	> 100	> 100	> 100 µM	> 100	–	> 100 µM	–	> 100	> 100 µM	–	–	–	–	–	–	–	–	–	–
O=C(c1cccs1)c1nccc2c1cnc1ccccc12	–	> 100	> 100 µM	> 100	> 100	> 100 µM	> 100	> 100	> 100 µM	–	–	–	–	–	–	–	–	–	–
COc1ccc2oc(S(=O)(=O)N3CC(CCl)c4ccc(N)cc43)cc2c1 (stereo not given)	> 100	0.515	> 100 µM	> 100	> 100	> 100 µM	> 28.3	3.05	–	> 55.8	–	–	–	–	–	–	–	–	–
CC1(C)OC(=S)N(c2ccccc2)C12C=Cc1cc3ccccc3nc1S2 (stereo not given)	–	–	> 100 µM	> 100	> 100	> 100 µM	> 100	> 100	80.1 µM	–	–	–	–	–	–	–	–	–	–
CC1(C)CC(=O)c2c(nc3c(ccc4ccccc43)c2-c2ccc(NC(=O)CCC(=O)Nc3ccc(-c4c5c(nc6c4ccc4ccccc46)CC(C)(C)CC5=O)cc3)cc2)C1	> 100	> 100	> 100 µM	> 100	> 100	> 100 µM	> 100	–	> 100 µM	> 100	–	–	–	–	–	–	–	–	–
COc1ccc(-c2c(-c3ccc(OC)cc3)n3c(=O)n(C)c(=O)n23)cc1	–	65.2	> 100 µM	51.6	> 100	> 100 µM	52.9	> 100	–	–	–	–	–	–	–	–	–	–	–
Cc1ccc(S(=O)C[C@](NC(=O)OCc2ccccc2)(Sc2ccccc2)C(F)F)cc1 (stereo not given in full)	–	45.6	–	66.1	28.3	40.6 µM	48.5	35.9	30.7 µM	50.9	–	–	–	–	–	–	–	–	–
COc1ccc2cc(CNCCCCCCCCNCc3ccc4cc(OC)ccc4c3)ccc2c1	–	> 100	–	9.86	11.1	4.38 µM	–	31.8	2.76 µM	9.97	–	–	–	–	–	–	–	–	–
N=c1oc2ccccc2cc1-c1nc2ccccc2[nH]1	40.5	35.7	> 100 µM	–	> 100	> 100 µM	> 100	> 100	> 100 µM	87.4	–	–	–	–	–	–	–	–	–
COc1cc(C(=O)Oc2c(C(C)=O)sc3c2c(=O)n(-c2ccccc2)c(=S)n3-c2ccccc2)cc(OC)c1OC	57	50.6	27.4 µM	62.2	50.1	68.4 µM	53.7	55.6	> 100 µM	–	–	–	–	–	–	–	–	–	–
O=c1[nH]ncc2[nH]c3c4ccccc4ccc3c12	> 100	> 100	–	> 100	–	> 100 µM	> 100	> 100	> 100 µM	> 100	–	–	–	–	–	–	–	–	–

From PubChem BioAssay (NCI)
